Data on one compound can be found in patent US20110257146A1, “Method of Treating Kcnq Related Disorders Using Organozinc Compounds” (The johns Hopkins University, priority 2006, published 2011).

Entries after “also recorded” stand apart in the source; their conditions may differ.

Common to all, as to assay type: cell-based
Assay [1] addresses T1, KCNQ2/3 heteromultimers (Rattus norvegicus, UniProt O88943+O88944).
T1 construct: expressed in transfected cells
Nature of the assay: Whole-cell voltage clamp of CHO cells expressing KCNQ2/3 heteromultimers. Here is the method:
(§1) Cell culture and transient transfection—Chinese Hamster Ovary (CHO) cells were grown in 50/50 DMEM/F12 (Cellgro) with 10% FBS (Gibco), 100 U/ml penicillin (Cellgro), 100 μg/ml streptomycin (Cellgro) and 2 mM L-glutamine (Gibco). At 24 hours before transfection, cells were split and plated in 60 mm dishes and were transfected with Lipofectamine2000™ reagent (Invitrogen) according to the manufacturer's instruction. At 24 hours after transfection, cells were split and re-plated onto coverslips coated with poly-L-lysine (Sigma). Plasmid expressing CD4 cDNA as a marker was cotransfected with the channel cDNAs of hKCNQ1 (from Dr. Michael Sanguinetti), hKCNQ4 (from Dr. Vitya Vardanyan), rKCNQ2, rKCNQ3, and hKCNQ5 (from Drs. David McKinnon, Mark Shapiro, and Thomas Jentsch). Prior to recording, anti-CD4 Dynabeads (Dynal. Biotech. Inc.) were added into the medium to allow for identification of the transfected cells. Stable lines expressing Kv2.1, hERG, and Kv4.2 were generated by standard protocols using pcDNA3.1 and maintained at complete medium supplemented with 500 μg/ml G418. The N-type calcium channel stable line was a kind gift from Drs. Diane Lipscombe and David Yue.
(§2) Electrophysiological Recording—Standard whole-cell recording was used. Pipettes were pulled from borosilicate glass capillaries (TW150-4, World Precision Instruments, Sarasota, Fla.). When filled with the intracellular solution, the pipettes have resistances of […]. During the recording, constant perfusion of extracellular solution was maintained using a BPS perfusion system (ALA, Westbury, N.Y.). Pipette solution contained (mM): KCl 145, MgCl2 1, EGTA 5, HEPES 10, MgATP 5 (pH 7.3); extracellular solution contained (mM): NaCl 140, KCl 3, CaCl2 2, MgCl2 1.5, HEPES 10, glucose 10 (pH 7.4). Current and voltage were recorded using an Axopatch-200A amplifier, filtered at 1 kHz and digitized using a DigiData 1322A with pClamp 9.2 software (Axon Instruments, Foster City, Calif.). Series resistance compensation was also used and set to 60-80%.
(§3) Data and Statistical Analysis—Patch-clamp data were preprocessed using Clampfit 9.2 (Axon Instruments, Foster City, Calif.) and then analyzed in Origin 7 (OriginLab, Northampton, Mass.). The activation curve was fitted by the Boltzmann equation: G=(Gmax−Gmin)/[1+exp[(V−V1/2)/S]]+Gmin, where Gmax is the maximum conductance, Gmin is the minimum conductance, V1/2 is the voltage for half of the total numbers of channels to open, and S is the slope factor. The dose response curve was fitted by the Hill equation: E=Emax/(1+(EC50/C)^P), where Emax is the maximum response, C is the drug concentration, EC50 is the drug concentration producing half of the maximum response, and P is the Hill coefficient. The deactivation trace was fitted by the standard exponential equation: I(t)=ΣIi*exp(−t/τi), where I is the current, t is the time and τ is the time constant. Data are presented as means±SE. Significance was estimated using paired two-tailed Student's t-test.

Assay [2] addresses T2, KCNQ2 (W236L) (Rattus norvegicus, UniProt O88943, W236L).
T2 construct: expressed in transfected cells
Description: Whole-cell recording of KCNQ2 (W236L) mutant. The conditions noted are these: 2.5 μM ZnPy, −30 mV or +50 mV. Here is the method: FIG. 8. Differential modulatory sites on KCNQ channel by ZnPy and retigabine. A. Left Panel. Representative KCNQ2 current was recorded with intracellular pipet solution supplemented with 10 μM ZnPy. The overlapping external application of ZnPy is as shown. Right Panel. G-V curves at different indicated recording times (0 to 12 minutes) upon establishing stable seal are shown. The intracellular perfusion (with or without EGTA) was first calibrated by using compatible molecular weight dye. […] The levels of current potentiation at +50 mV and −30 mV were calculated by Idrug/Icontrol, and shown as indicated (n≧4, *p<0.001).
Mutagenesis—Starting from KCNQ cDNAs, the KCNQ2 point mutants were constructed by recombinant PCR and verified by sequencing.
Electrophysiological Recording—Standard whole-cell recording was used. Pipettes were pulled from borosilicate glass capillaries (TW150-4, World Precision Instruments, Sarasota, Fla.). When filled with the intracellular solution, the pipettes have resistances of […]. During the recording, constant perfusion of extracellular solution was maintained using a BPS perfusion system (ALA, Westbury, N.Y.). […] Current and voltage were recorded using an Axopatch-200A amplifier, filtered at 1 kHz and digitized using a DigiData 1322A with pClamp 9.2 software (Axon Instruments, Foster City, Calif.). […]

Assay [3] addresses T3, KCNQ2 (Rattus norvegicus, UniProt O88943). Nature of the assay: Whole-cell voltage clamp of CHO cells expressing KCNQ2. Also noted: expressed in transfected cells; host or cells: CHO cells. Here is the method: as §1, §2, §3
Assay [4] has as its target T3, KCNQ2. Description: Non-radioactive rubidium efflux assay (KCNQ2 screen, HEK 293). Also noted: expressed in transfected cells. Here is the method: To identify compounds with agonistic activities for M currents, stable cell lines for both KCNQ2 and KCNQ2/3 were generated. Under a pre-calibrated condition of medium-level rubidium efflux responses, more than 20,000 small molecule compounds were screened at a concentration of 10 μM. The selected condition allowed for identification of both inhibitors and potentiators. Selected compounds either increased or decreased the rubidium responses by more than 15% when compared to the control. A subset of the compounds were selected and validated for both potency and specificity.
KCNQ2 screen—HEK 293 cells stably expressing rat KCNQ2 were resuspended in DMEM/F12 medium and plated at a density of 4×10^4/well in poly-L-Lysine coated 96-well plates. Cells were then incubated at 37° C. with 5% CO2 overnight. 30 μl/well DMEM/F12 medium containing 30 mM RbCl was added to the cells the next day, followed by incubation for an additional 3 hours. Cell plating and reagent dispensing were done using a Multidrop 384 dispenser (Thermo Electron Corporation).
Compound addition and Rb^+ efflux assay were programmed and performed on a Cybi-Well™ system and Tekbench liquid handling system (Tekcel Inc., Hopkinton, Mass.), respectively. […] Rb^+ concentrations in both supernatant and cell lysates were measured by atomic absorption spectrometry using an ICR8000 instrument (Aurora Biomed, Vancouver, Canada).

On to `S=c1ccccn1[O][Zn][O]n1ccccc1=S` [ZnPy, Zinc Pyrithione], for which the “hyperpolarizing shift of V1/2” value in assay [1] (10 μM ZnPy) is 24.4±0.8 mV. Moreover, the “V1/2 in presence of compound” value in assay [1] (10 μM ZnPy, control −20.3±0.8 mV) is −44.7±1.9 mV. The activation time constant in assay [1] (+50 mV, with ZnPy, control 75.6±4.9) came to 157.8±23.5 milliseconds; in assay [3] (+50 mV, with ZnPy, control 163.5±13.7), 293.1±11.2 milliseconds. Besides, the entries for the “Hill coefficient of dose dependent curve” value in assay [1] (KCNQ2/3) and in assay [3] (KCNQ2) were 1.4 and 1.8, respectively. Also, the EC50 came out at 2400 ± 400 nM in assay [1] (KCNQ2/3 heteromultimers, read-out: EC50 of midpoint of activation voltage (V1/2) shift) and 1500 ± 300 nM in assay [3] (KCNQ2 alone, read-out: EC50 of midpoint of activation voltage (V1/2) shift). The deactivation time constant in assay [1] (−120 mV, 10 μM ZnPy, control 12.4±0.7) turned out to be 41.9±6.4 milliseconds; in assay [3] (−120 mV, 10 μM ZnPy, control 14.1±0.6) it was 54.4±0.9 milliseconds. For the same compound, the “sensitivity of mutant to compound” value in assay [2] was “comparable sensitivity to KCNQ2 wild type; also recorded: fully effective in potentiating”. For the same compound, the “effect on membrane potential of CHO cells expressing KCNQ2” value in assay [3] (10 μM ZnPy) was “significant hyperpolarization”. Further, the “left (hyperpolarizing) shift of V1/2” value in assay [3] (10 μM ZnPy) is given as 25.5±1.5 mV. Also, the “effect on TEA-blocked KCNQ2 current” value in assay [3] (10 μM ZnPy extracellular in presence of 20 mM TEA) is “unable to reverse the TEA inhibition”. Further, the “potentiation on intracellular application” value in assay [3] (10 μM ZnPy in pipette solution, with or without EGTA) was “induced no potentiation”. Besides, the “V1/2 on internal perfusion” value in assay [3] (10 μM ZnPy through recording pipette, 0 to 12 minutes) was “consistent and identical to that of KCNQ2 control”. In assay [3] (10 μM ZnPy, extracellular), the “effect on channel activity” value is “potentiated”. Moreover, in assay [3] (10 μM ZnPy, control −18.9±0.6 mV), the “V1/2 (voltage required for half maximal activation) in presence of compound” value is recorded as −44.4±0.9 mV. Moreover, the “elevation of KCNQ activity by rubidium efflux” value in assay [4] was “unusual potency in elevating KCNQ activities”.
